Data as given in patent US20250353874A1, “GLUCOCORTICOID RECEPTOR AGONISTS” (Eli Lilly and Company, priority 2021, published 2025).
Read-outs that look alike come from different tables or passages of the source.

Target: hGR (GR-LBD) (Homo sapiens (Human), UniProt P04150)
Assay: hGR CoActivator Recruitment Assay (LanthaScreen TR-Fret GR Coactivator Assay)
Type: biochemical
Details: top concentration 200 nM
Experimental: hGR CoActivator Recruitment Assay
The activity of glucocorticoid compounds was measured using the LanthaScreen TR-Fret GR Coactivator Assay from Life Technologies (A15899). The compounds were acoustically transferred to an assay plate in a 3-fold 10-point serial dilution with a top concentration of 200 nM. Ten microliters of a 2× solution of GR-LBD was added to the compound plate and incubated for 10 min. Then ten microliters of a 2× solution of Fluoresein-SRC1-4 and Tb labelled anti-GST antibody were added to the plate. The plate was incubated in the dark for two hours and then read on an Envision plate reader, with excitation at 340 nm and emission at 520 nm (Fluorescein) and 490 nm (Terbium). The emission ratio of 520/490 was analyzed in Genedata. To obtain percent activity, the data was compared to a negative control of DMSO and positive control of 4 uM dexamethasone.

[1] = 10-point dilution, positive control 4 uM dexamethasone, read-out: IC50

Chain of hGR (GR-LBD) (P04150 524-758): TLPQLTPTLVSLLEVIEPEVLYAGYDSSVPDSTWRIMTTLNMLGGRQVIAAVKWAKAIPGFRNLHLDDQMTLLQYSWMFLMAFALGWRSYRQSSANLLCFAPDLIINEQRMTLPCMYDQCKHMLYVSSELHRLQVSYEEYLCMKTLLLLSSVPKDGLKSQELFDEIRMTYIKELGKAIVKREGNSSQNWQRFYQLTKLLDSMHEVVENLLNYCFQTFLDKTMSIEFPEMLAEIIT

Compound | IC50 [1] | IC50 (read-out: relative IC50)
Cc1ccc(OCc2cccc(N)c2)c(F)c1[C@H]1O[C@@H]2C[C@H]3[C@@H]4CCC5=CC(=O)C=C[C@]5(C)[C@H]4[C@@H](O)C[C@]3(C)[C@]2(C(=O)CO)O1 [Example 2, (6aR,6bS,7S,8aS,8bS,10S,11aR,12aS,12bS)-10-(3-((3-Aminobenzyl)oxy)-2-fluoro-6-methylphenyl)-7-hydroxy-8b-(2-hydroxyacetyl)-6a,8a-dimethyl-1,2,6a,6b,7,8,8a,8b,11a,12,12a,12b-dodecahydro-4H-naphtho[2′,1′:4,5]indeno[1,2-d][1,3]dioxol-4-one] | 1.44 nM | –
C[C@]12C=CC(=O)C=C1CC[C@@H]1[C@@H]2[C@@H](O)C[C@@]2(C)[C@H]1C[C@H]1O[C@H](c3c(Cl)cccc3OCc3cccc(N)c3)O[C@]12C(=O)CO [Example 52, (6aR,6bS,7S,8aS,8bS,10S,11aR,12aS,12bS)-10-(2-((3-aminobenzyl)oxy)-6-chlorophenyl)-7-hydroxy-8b-(2-hydroxyacetyl)-6a,8a-dimethyl-1,2,6a,6b,7,8,8a,8b,11a,12,12a,12b-dodecahydro-4H-naphtho[2′,1′:4,5]indeno[1,2-d][1,3]dioxol-4-one] | – | > 200 nM
COc1ccc(OCc2cccc(N)c2)c(F)c1[C@H]1O[C@@H]2C[C@H]3[C@@H]4CCC5=CC(=O)C=C[C@]5(C)[C@H]4[C@@H](O)C[C@]3(C)[C@]2(C(=O)CO)O1 [Example 5, (6aR,6bS,7S,8aS,8bS,10S,11aR,12aS,12bS)-10-(3-((3-Aminobenzyl)oxy)-2-fluoro-6-methoxyphenyl)-7-hydroxy-8b-(2-hydroxyacetyl)-6a,8a-dimethyl-1,2,6a,6b,7,8,8a,8b,11a,12,12a,12b-dodecahydro-4H-naphtho[2′,1′:4,5]indeno[1,2-d][1,3]dioxol-4-one] | 1.4 nM | –
COc1ccc(OCc2cccc(N)c2)c(F)c1[C@@H]1O[C@@H]2C[C@H]3[C@@H]4CCC5=CC(=O)C=C[C@]5(C)[C@H]4[C@@H](O)C[C@]3(C)[C@]2(C(=O)CO)O1 [Example 4, (6aR,6bS,7S,8aS,8bS,10R,11aR,12aS,12bS)-10-(3-((3-Aminobenzyl)oxy)-2-fluoro-6-methoxyphenyl)-7-hydroxy-8b-(2-hydroxyacetyl)-6a,8a-dimethyl-1,2,6a,6b,7,8,8a,8b,11a,12,12a,12b-dodecahydro-4H-naphtho[2′,1′:4,5]indeno[1,2-d][1,3]dioxol-4-one] | 2.47 nM | –
Cc1ccc(OCc2cccc(N)c2)c(F)c1[C@@H]1O[C@@H]2C[C@H]3[C@@H]4CCC5=CC(=O)C=C[C@]5(C)[C@H]4[C@@H](O)C[C@]3(C)[C@]2(C(=O)CO)O1 [Example 1, (6aR,6bS,7S,8aS,8bS,10R,11aR,12aS,12bS)-10-(3-((3-Aminobenzyl)oxy)-2-fluoro-6-methylphenyl)-7-hydroxy-8b-(2-hydroxyacetyl)-6a,8a-dimethyl-1,2,6a,6b,7,8,8a,8b,11a,12,12a,12b-dodecahydro-4H-naphtho[2′,1′:4,5]indeno[1,2-d][1,3]dioxol-4-one] | 2.12 nM | –
Cc1ccc(OCc2ccccc2N)cc1[C@@H]1O[C@@H]2C[C@H]3[C@@H]4CCC5=CC(=O)C=C[C@]5(C)[C@H]4[C@@H](O)C[C@]3(C)[C@]2(C(=O)CO)O1 [Example 80, (6aR,6bS,7S,8aS,8bS,10R,11aR,12aS,12bS)-10-(5-((2-aminobenzyl)oxy)-2-methylphenyl)-7-hydroxy-8b-(2-hydroxyacetyl)-6a,8a-dimethyl-1,2,6a,6b,7,8,8a,8b,11a,12,12a,12b-dodecahydro-4H-naphtho[2′,1′:4,5]indeno[1,2-d][1,3]dioxol-4-one] | – | > 200 nM
C[C@]12C=CC(=O)C=C1CC[C@@H]1[C@@H]2[C@@H](O)C[C@@]2(C)[C@H]1C[C@H]1O[C@H](c3c(F)cccc3OCc3cccc(N)c3)O[C@]12C(=O)CO [Example 45, (6aR,6bS,7S,8aS,8bS,10S,11aR,12aS,12bS)-10-(2-((3-aminobenzyl)oxy)-6-fluorophenyl)-7-hydroxy-8b-(2-hydroxyacetyl)-6a,8a-dimethyl-1,2,6a,6b,7,8,8a,8b,11a,12,12a,12b-dodecahydro-4H-naphtho[2′,1′:4,5]indeno[1,2-d][1,3]dioxol-4-one] | – | > 200 nM
